Each structure is given as a SMILES string. Structures can show the parent of a compound that is named as a salt. Where only a bound is given, the exact number is not on record here.

In test [1] the target is MMP-3 (HFS; human fibroblast stromelysin-1) (Homo sapiens, UniProt P08254). Briefly: Enzyme kinetic assay, inhibition of MMP-3. Format: biochemical. Particulars: read-out: Ki (value in parentheses), HFS MMP-3. The text has this: (§1) The following protocol was used to obtain the data found in the following table. Materials: The fluorescent peptide substrates for matrix metalloproteinases (MMPs) used were purchased from Bachem Chem. Co. The metal salts and Brij-35 were purchased from Fisher Scientific Inc. All other chemicals were purchased from Sigma-Aldrich Chem. Co. The sources and biochemical characterizations of multiple MMPs, including MMP-1/human fibroblast collagenase (HFC), MMP-2/human fibroblast gelatinase (HFG), MMP-8/human neutrophil collagenase (HNC), and MMP-9/human neutrophil gelatinase (HNG), MMP-7/human matrilysin (MLN), MMP-3/human fibroblast stromelysin-1 (HFS), human recombinant catalytic domain of membrane-type 1 matrix metalloproteinase (cdMT1-MMP), catalytic domain of MMP-12/metalloelastase (cdMET), and MMP-26/human endometase (EDM) were described previously (Sang, Q. X., Birkedal-Hansen, H., and Van Wart, H. E. Proteolytic and non-proteolytic activation of human neutrophil progelatinase B. Biochim. Biophys. Acta. 1995; 1251, 99-108; Sang, Q. A., Bodden, M. K., and Windsor, L. J. Activation of human progelatinase A by collagenase and matrilysin: activation of procollagenase by matrilysin. J. Protein. Chem. 1996; 15, 243-253; Li, H., Bauzon, D. E., Xu, X., Tschesche, H., Cao, J., and Sang, Q.-X. A. Immunological characterization of cell-surface and soluble forms of membrane type 1 matrix metalloproteinase in human breast cancer cells and in fibroblasts. Molec. Carcinog. 1998; 22, 84-94; Park, H. I., Ni, J., Gerkema, F. E., Liu, D., Belozerov, V. E., and Sang, Q.-X. A. Identification and characterization of human endometase (Matrix metalloproteinase-26) from endometrial tumor. J. Biol. Chem., 2000; 275, 20540-20544). The active concentrations of MMPs were determined by titration with GM6001, a tight-binding MMP inhibitor, as described previously (Park, H. I., Turk, B. E., Gerkema, F. E., Cantley, L. C., and Sang, Q.-X. A. Peptide substrate specificities and protein cleavage sites of human endometase/matrilysin-2/matrix metalloproteinase-26. J. Biol. Chem. 2002; 277, 35168-35175).
MMP-3 (HFS; human fibroblast stromelysin-1), sequence (P08254 100-477): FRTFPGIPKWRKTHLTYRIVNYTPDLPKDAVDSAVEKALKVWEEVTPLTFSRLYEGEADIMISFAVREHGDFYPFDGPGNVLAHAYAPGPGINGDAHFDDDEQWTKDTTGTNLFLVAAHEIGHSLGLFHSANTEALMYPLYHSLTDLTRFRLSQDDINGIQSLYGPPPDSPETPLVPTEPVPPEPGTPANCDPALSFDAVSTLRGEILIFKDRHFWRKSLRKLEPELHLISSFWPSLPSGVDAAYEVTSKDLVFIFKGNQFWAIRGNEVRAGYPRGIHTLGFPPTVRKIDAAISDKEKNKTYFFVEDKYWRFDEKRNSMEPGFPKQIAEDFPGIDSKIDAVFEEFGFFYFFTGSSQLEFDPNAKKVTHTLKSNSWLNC
(§2) The active inhibitor concentrations were estimated by titrating the mercapto group with 5,5′-dithiobis(2-nitrobenzoic acid) (DTNB; Ellman's reagent) as described previously (Ellman, G. L. A colorimetric method for determining low concentrations of mercaptans. Arch. Biochem. Biophys. 1958; 74, 443-450; Ellman, G. L. Tissue sulfhydryl groups. Arch. Biochem. Biophys. 1959; 82, 70-77; Riddles, P. W., Blakeley, R. L., and Zerner, B. Ellman's reagent: 5,5′-dithiobis(2-nitrobenzoic acid)—a reexamination. Anal. Biochem. 1979; 94, 75-81). Briefly, the reaction of DTNB with the mercapto group produces 2-nitro-5-thiobenzoic acid (TNB). The concentration of TNB is then measured by monitoring the absorbance at 412 nm. Cysteine was used to generate the standard curve with a molar extinction coefficient of 14,000±500 M^−1 cm^−1, which is close to the value in the literature (Riddles, P. W., Blakeley, R. L., and Zerner, B. Ellman's reagent: 5,5′-dithiobis(2-nitrobenzoic acid)—a reexamination. Anal. Biochem. 1979; 94, 75-81).
(§3) The substrate Mca-PLGLDpaAR-NH2 was used to measure inhibition constants (Knight, C. G., Willenbrock. F., and Murphy, G. A novel coumarin-labelled peptide for sensitive continuous assays of the matrix metalloproteinases. FEBS Lett. 1992; 296, 263-266). Enzymatic assays were performed at 25° C. in 50 mM HEPES buffer at pH 7.5 in the presence of 10 mM CaCl2, 0.2 M NaCl, and 0.01% or 0.05% Brij-35 with substrate concentrations of 1 μM. The release of product was monitored by measuring fluorescence (excitation and emission wavelengths of 328 nm and 393 nm, respectively) with a Perkin Elmer Luminescence Spectrophotometer LS 50B connected to a temperature controlled water bath. All stock solutions of inhibitors were in dimethyl sulfoxide. […]

For test [2], the target named is MMP-9 (HNG; human neutrophil gelatinase) (Homo sapiens, UniProt P14780). Briefly: Enzyme kinetic assay, inhibition of MMP-9. Particulars: read-out: Ki (value in parentheses), HNG MMP-9. Format: biochemical.
MMP-9 (HNG; human neutrophil gelatinase), sequence (P14780 94-707): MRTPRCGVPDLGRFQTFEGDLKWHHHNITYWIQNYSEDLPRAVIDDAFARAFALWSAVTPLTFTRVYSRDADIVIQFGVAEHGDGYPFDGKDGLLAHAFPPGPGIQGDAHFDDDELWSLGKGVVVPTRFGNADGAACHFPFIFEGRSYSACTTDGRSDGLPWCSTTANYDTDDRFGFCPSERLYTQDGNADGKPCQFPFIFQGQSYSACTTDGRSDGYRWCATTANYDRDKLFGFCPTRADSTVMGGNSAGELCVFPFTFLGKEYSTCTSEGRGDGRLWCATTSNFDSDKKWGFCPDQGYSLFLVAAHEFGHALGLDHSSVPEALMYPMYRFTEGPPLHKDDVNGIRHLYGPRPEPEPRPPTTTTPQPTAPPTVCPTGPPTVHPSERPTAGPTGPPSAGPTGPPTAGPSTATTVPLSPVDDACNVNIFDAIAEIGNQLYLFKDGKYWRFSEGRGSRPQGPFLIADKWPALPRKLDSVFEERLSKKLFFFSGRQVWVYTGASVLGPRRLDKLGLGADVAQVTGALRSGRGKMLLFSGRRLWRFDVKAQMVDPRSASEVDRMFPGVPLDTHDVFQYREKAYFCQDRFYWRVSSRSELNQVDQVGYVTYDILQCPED
Description: as §1, §2, §3

For test [3], the target named is T1, MMP-2 (HFG; human fibroblast gelatinase) (Homo sapiens, UniProt P08253).
T1 sequence (P08253 110-660): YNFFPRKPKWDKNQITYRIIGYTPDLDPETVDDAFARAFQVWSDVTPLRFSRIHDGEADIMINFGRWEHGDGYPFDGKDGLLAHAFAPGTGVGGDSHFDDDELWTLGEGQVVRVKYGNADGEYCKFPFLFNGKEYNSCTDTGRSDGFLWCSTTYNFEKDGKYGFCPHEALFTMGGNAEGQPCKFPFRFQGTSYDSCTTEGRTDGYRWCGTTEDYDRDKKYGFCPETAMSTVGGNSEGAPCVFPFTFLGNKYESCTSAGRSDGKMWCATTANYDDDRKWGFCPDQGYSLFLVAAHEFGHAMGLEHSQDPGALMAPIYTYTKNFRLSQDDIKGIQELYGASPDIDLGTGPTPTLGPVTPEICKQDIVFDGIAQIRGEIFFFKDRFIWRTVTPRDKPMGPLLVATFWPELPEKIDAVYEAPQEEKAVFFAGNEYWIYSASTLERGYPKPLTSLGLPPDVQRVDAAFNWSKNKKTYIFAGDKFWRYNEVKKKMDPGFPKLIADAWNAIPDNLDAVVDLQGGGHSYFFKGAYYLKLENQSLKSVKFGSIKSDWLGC
Briefly: Enzyme kinetic assay, inhibition of MMP-2. The class given is biochemical. As to conditions: read-out: Ki (value in parentheses), HFG MMP-2.
Description: as §1, §2, §3

Test [4] concerns the target T2, MMP-1 (HFC; human fibroblast collagenase) (Homo sapiens, UniProt P03956).
T2 sequence (P03956 100-469): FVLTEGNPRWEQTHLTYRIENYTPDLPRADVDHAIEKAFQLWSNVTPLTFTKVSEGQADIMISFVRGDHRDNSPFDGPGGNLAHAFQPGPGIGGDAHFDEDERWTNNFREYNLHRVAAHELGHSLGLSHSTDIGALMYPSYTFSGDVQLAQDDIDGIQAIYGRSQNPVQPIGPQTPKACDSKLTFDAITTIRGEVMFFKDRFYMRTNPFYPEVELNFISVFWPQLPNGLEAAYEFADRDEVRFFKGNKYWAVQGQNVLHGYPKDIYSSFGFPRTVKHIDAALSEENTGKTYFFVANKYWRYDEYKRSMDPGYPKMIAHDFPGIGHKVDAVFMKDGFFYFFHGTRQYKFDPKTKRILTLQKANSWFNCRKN
Briefly: Enzyme kinetic assay, inhibition of MMP-1. The class given is biochemical. Particulars: 25° C., pH 7.5, substrate 1 μM; read-out: IC50 (value without parentheses), HFC MMP-1.
Description: as §1, §2, §3

The subject of test [5] is stented arteries. Particulars: compared to placebo; cited from earlier work.
In test [6] the test system is EAE animal model. Particulars: administered daily from disease induction or from onset of clinical signs; cited from earlier work.
For test [7], the system named is insulin resistance. Particulars: mouse model of insulin resistance; cited from earlier work.
Test [8] has as its system lethal acute GVHD. As to conditions: mouse model of lethal acute GVHD; cited from earlier work.
Test [9] concerns brain. As to conditions: following hemorrhage; cited from earlier work.
Test [10] has as its system experimental autoimmune uveitis. As to conditions: cited from earlier work.
The test system of test [11] is kidneys. Particulars: given prior to disease induction; cited from earlier work.
The test system of test [12] is EAN animal model. As to conditions: cited from earlier work.
The test system of test [13] is blood-brain barrier. Particulars: ischemia reperfusion model in the rat; cited from earlier work.

With `NC(=O)N1C[C@H](NS(=O)(=O)c2ccc(Oc3ccccc3)cc2)[C@@H](S)C1` [Example 12, (3S,4S)—N-Carbamoyl-3-(4-phenoxybenzene-sulfonamido)-4-mercaptopyrrolidine], the Ki was 1.7 µM in test [1], 13 nM in test [2] and 10 nM in test [3].
Consider `O=S(=O)(N[C@@H]1CNC[C@H]1S)c1ccc(Oc2ccccc2)cc1` [Example 11, (3R,4R)-3-(4-Phenoxybenzenesulfonamido)-4-mercaptopyrrolidine Hydrochloride], for which the Ki came to 1.6 µM in test [1], 230 nM in test [2] and 49 nM in [3]. Also, in [4], the IC50 is 6.3 µM.
The matching figures for `O=C(OCc1ccccc1)N1C[C@H](S)[C@H](NS(=O)(=O)c2ccc(Oc3ccccc3)cc2)C1` [Example 13, (3R,4S)—N-Cbz-3-(4-Phenoxybenzenesulfonamido)-4-mercaptopyrrolidine]: 5.4 µM, 3100 nM, 1800 nM and about 125 µM.
For the compound `CNC(=O)[C@H](Cc1c[nH]c2ccccc12)NC(=O)[C@@H](CC(=O)NO)CC(C)C` [GM6001], in test [5], the “intimal hyperplasia and collagen content” value is “significantly inhibited”; the lumen area entry is reported as “increasing the lumen area”; the rates of proliferation result is given as “without affecting the rates of proliferation”. In addition, the “clinical signs of EAE” value in test [6] was “suppressed the development or reversed clinical signs of EAE in a dose-dependent way”.
Regarding `CNC(=O)[C@@H](NC(=O)[C@H](CC(C)C)[C@H](C)C(=O)NO)c1ccccc1` [KB-R7785], in test [7], the “plasma glucose and insulin levels” value is reported as “significant decrease”. In addition, the mortality result in [8] was “reduced mortality”.
For the compound `O=C(OCc1ccccc1)N1C[C@@H](S)[C@@H](NS(=O)(=O)c2ccc(Oc3ccccc3)cc2)C1` [Example 14, (3S,4R)—N-Cbz-3-(4-Phenoxybenzenesulfonamido)-4-mercaptopyrrolidine], the Ki was determined as 3.4 µM in test [1], 2200 nM in test [2] and 800 nM in [3]. For the same compound, in test [4], the IC50 is over 3 µM.
`O=S(=O)(N[C@H]1CNC[C@@H]1S)c1ccc(Oc2ccccc2)cc1` [Example 10, (3S,4S)-3-(4-Phenoxybenzenesulfonamido)-4-mercaptopyrrolidine Hydrochloride]: the Ki in test [1] was determined as 5.9 µM; in test [2], 210 nM; in test [3], 38 nM. Moreover, the IC50 in test [4] was found to be 50 µM.
For the compound `C=CC[C@H](C(=O)NO)[C@@H](CC(C)C)C(=O)N[C@@H](Cc1ccccc1)C(=O)NC` [BB-1101], the secondary brain edema result in test [9] is “reduces”. In addition, in test [10], the retinal damage result was “shown to reduce retinal damage”. Besides, the “inflammatory response and damage” value in test [11] is given as “significantly reduced”. Also, the “EAN symptoms, inflammation, demyelination, weight loss” value in test [12] (given from the initiation of EAN) is “prevented the development of symptoms and reduced inflammation, demyelination, and weight loss”. For the same compound, the EAN disease severity result in test [12] (given from the onset of symptoms) is recorded as “significantly reduced disease severity”. Moreover, the “early phases of blood-brain barrier leakage” value in test [13] is on record as “reduces”.
